In US20090247559A1 (Exelixis, Inc., priority 2007, published 2009):

What was measured:
[1] = target: PIM (PIM-1, PIM-2, and/or PIM-3); assay: PIM-1, PIM-2 and PIM-3 inhibition, biochemical chemiluminescence assays (Kinase Glo, IC50 determination); conditions: Table 1 activity class; PIM refers to PIM-1, PIM-2, and/or PIM-3; read-out: PIM IC50 (Activity B)
[2] = target: CK2 (Homo sapiens, UniProt P68400); assay: CK2 inhibition, biochemical chemiluminescence holoenzyme assay (Kinase Glo, IC50 determination); conditions: Table 1 activity class; symbol given only if active; read-out: CK2 IC50 (Activity C)
How it was run: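 Holoenzyme CK2 assay; compounds pre-incubated with substrate and enzyme, then reacted 150 min at 24-27° C. Remaining ATP measured as luminescence with Kinase Glo, and IC50 derived from the signal.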

Sequence of CK2 (P68400 whole entry): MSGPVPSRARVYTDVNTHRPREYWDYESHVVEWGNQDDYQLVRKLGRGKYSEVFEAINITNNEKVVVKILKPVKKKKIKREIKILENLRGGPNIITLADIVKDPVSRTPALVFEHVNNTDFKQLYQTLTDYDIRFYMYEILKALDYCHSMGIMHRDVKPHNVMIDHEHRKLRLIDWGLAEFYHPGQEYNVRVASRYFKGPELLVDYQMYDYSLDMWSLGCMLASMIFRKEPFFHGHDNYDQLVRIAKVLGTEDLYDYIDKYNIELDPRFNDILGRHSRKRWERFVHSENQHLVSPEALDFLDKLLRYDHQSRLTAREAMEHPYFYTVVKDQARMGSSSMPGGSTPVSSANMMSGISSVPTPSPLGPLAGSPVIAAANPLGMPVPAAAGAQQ
Sequence of CK2 (P67870 whole entry partner): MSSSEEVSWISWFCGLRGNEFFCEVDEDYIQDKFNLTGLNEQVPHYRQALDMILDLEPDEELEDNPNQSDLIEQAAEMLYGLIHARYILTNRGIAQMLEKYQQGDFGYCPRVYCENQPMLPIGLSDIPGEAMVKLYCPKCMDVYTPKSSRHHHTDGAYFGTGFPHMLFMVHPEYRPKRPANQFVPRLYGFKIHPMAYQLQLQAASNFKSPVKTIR

Row | SMILES | IC50 [1] | IC50 [2]
1 | O=c1[nH]c(-c2ccc(Cl)s2)nc2c1oc1ccc(Br)cc12 [Compound 69, 8-bromo-2-(5-chloro-2-thienyl)[1]benzofuro[3,2-d]pyrimidin-4(3H)-one] | < 10 µM | < 10 µM
2 | CN1CCN(CC(C)(C)NCc2nc3c(oc4ccc(Br)cc43)c(=O)[nH]2)CC1 [Compound 212, 8-bromo-2-({[1,1-dimethyl-2-(4-methylpiperazin-1-yl)ethyl]amino}methyl)[1]benzofuro[3,2-d]pyrimidin-4(3H)-one] | < 10 µM | < 10 µM
3 | Nc1ccc(-c2nc3c(oc4ccc(Br)cc43)c(=O)[nH]2)cc1 [Compound 354, 2-(4-Aminophenyl)-8-bromo[1]benzofuro[3,2-d]pyrimidin-4(3H)-one] | < 10 µM | < 10 µM
4 | O=C(Nc1ccc(-c2nc3c(oc4ccc(Br)cc43)c(=O)[nH]2)c(Cl)c1)c1ccc(CO)cn1 [Compound 345, N-[4-(8-bromo-4-oxo-3,4-dihydro[1]benzofuro[3,2-d]pyrimidin-2-yl)-3-chlorophenyl]-5-(hydroxymethyl)pyridine-2-carboxamide] | < 10 µM | < 10 µM
5 | O=C(Nc1ccc(Cl)c(-c2nc3c(oc4ccc(Br)cc43)c(=O)[nH]2)c1)c1ccoc1 [Compound 342, N-[3-(8-bromo-4-oxo-3,4-dihydro[1]benzofuro[3,2-d]pyrimidin-2-yl)-4-chlorophenyl]furan-3-carboxamide] | < 10 µM | < 10 µM
6 | O=C(C1CCOC1)N1CCC(c2nc3c(oc4ccc(Br)cc43)c(=O)[nH]2)CC1 (stereo not drawn) [Compound 233, 8-bromo-2-[1-(tetrahydrofuran-3-ylcarbonyl)piperidin-4-yl][1]benzofuro[3,2-d]pyrimidin-4(3H)-one] | < 10 µM | < 10 µM
7 | COc1ccc(-c2nc3c(oc4ccc(Br)cc43)c(=O)[nH]2)c(Cl)c1 [Compound 79, 8-bromo-2-[2-chloro-4-(methyloxy)phenyl][1]benzofuro[3,2-d]pyrimidin-4(3H)-one] | < 10 µM | < 10 µM
8 | CC(=O)N[C@H]1CCN(Cc2nc3c(oc4ccc(Br)cc43)c(=O)[nH]2)C1 [Compound 365, N-{(3S)-1-[(8-bromo-4-oxo-3,4-dihydro[1]benzofuro[3,2-d]pyrimidin-2-yl)methyl]pyrrolidin-3-yl}acetamide] | < 10 µM | < 10 µM
9 | O=c1[nH]c(-c2ccc3c(c2)CCNC3)nc2c1oc1ccc(Br)cc12 [Compound 300, 8-Bromo-2-(1,2,3,4-tetrahydroisoquinolin-6-yl)[1]benzofuro[3,2-d]pyrimidin-4(3H)-one] | < 10 µM | < 10 µM
10 | O=c1[nH]c(CN2CCN(c3ccccc3)CC2)nc2c1oc1ccc(Br)cc12 [Compound 260, 8-bromo-2-[(4-phenylpiperazin-1-yl)methyl][1]benzofuro[3,2-d]pyrimidin-4(3H)-one] | < 10 µM | < 10 µM
11 | COc1cccc(CCNc2ccc3oc4c(=O)[nH]c(CN5CC[C@H](O)C5)nc4c3c2)c1OC [Compound 445, 8-({2-[2,3-bis(methyloxy)phenyl]ethyl}amino)-2-{[(3S)-3-hydroxypyrrolidin-1-yl]methyl}[1]benzofuro[3,2-d]pyrimidin-4(3H)-one] | < 10 µM | < 10 µM
12 | O=c1[nH]c(CN2CCOCC2)nc2c1oc1ccc(Br)cc12 [Compound 24, 8-bromo-2-(morpholin-4-ylmethyl)[1]benzofuro[3,2-d]pyrimidin-4(3H)-one] | < 10 µM | < 10 µM
13 | O=C(c1ccncc1)N1CCC(c2nc3c(oc4ccc(Br)cc43)c(=O)[nH]2)CC1 [Compound 236, 8-bromo-2-[1-(pyridin-4-ylcarbonyl)piperidin-4-yl][1]benzofuro[3,2-d]pyrimidin-4(3H)-one] | < 10 µM | < 10 µM

Now from value to compound:

Row | IC50 [1] | IC50 [2] | SMILES
14 | < 10 µM | < 10 µM | COC(=O)c1ccc(C(=O)Nc2ccc(-c3nc4c(oc5ccc(Br)cc54)c(=O)[nH]3)c(Cl)c2)nc1 [Compound 334, methyl 6-({[4-(8-bromo-4-oxo-3,4-dihydro[1]benzofuro[3,2-d]pyrimidin-2-yl)-3-chlorophenyl]amino}carbonyl)pyridine-3-carboxylate]
15 | < 10 µM | < 10 µM | O=c1[nH]c(-c2ncc[nH]2)nc2c1oc1ccc(Br)cc12 [Compound 85, 8-bromo-2-(1H-imidazol-2-yl)[1]benzofuro[3,2-d]pyrimidin-4(3H)-one]
16 | < 10 µM | < 10 µM | COc1cccc2oc3c(=O)[nH]c(-c4ccc5[nH]nc(N)c5c4)nc3c12 [Compound 171, 2-(3-amino-1H-indazol-5-yl)-9-(methyloxy)[1]benzofuro[3,2-d]pyrimidin-4(3H)-one]
17 | < 10 µM | < 10 µM | O=C(NC1CCCCC1)c1cccc(-c2nc3c(oc4ccc(Br)cc43)c(=O)[nH]2)c1 [Compound 92, 3-(8-bromo-4-oxo-3,4-dihydro[1]benzofuro[3,2-d]pyrimidin-2-yl)-N-cyclohexylbenzamide]
18 | < 10 µM | < 10 µM | COc1ccccc1CNCc1nc2c(oc3ccc(Br)cc32)c(=O)[nH]1 [Compound 268, 8-bromo-2-[({[2-(methyloxy)phenyl]methyl}amino)methyl][1]benzofuro[3,2-d]pyrimidin-4(3H)-one]
19 | < 10 µM | < 10 µM | O=c1[nH]c(CN2CCN(c3cccnc3)CC2)nc2c1oc1ccc(Br)cc12 [Compound 240, 8-bromo-2-[(4-pyridin-3-ylpiperazin-1-yl)methyl][1]benzofuro[3,2-d]pyrimidin-4(3H)-one]
20 | < 10 µM | < 10 µM | Cc1ccc(N2C[C@@H]3C[C@H]2CN3Cc2nc3c(oc4ccc(Br)cc43)c(=O)[nH]2)cc1 [Compound 192, 8-bromo-2-{[(1S,4S)-5-(4-methylphenyl)-2,5-diazabicyclo[2.2.1]hept-2-yl]methyl}[1]benzofuro[3,2-d]pyrimidin-4(3H)-one]
21 | < 10 µM | < 10 µM | CN(Cc1nc2c(oc3ccc(Br)cc32)c(=O)[nH]1)CC(O)CO (stereo not drawn) [Compound 409, 8-bromo-2-{[(2,3-dihydroxypropyl)(methyl)amino]methyl}[1]benzofuro[3,2-d]pyrimidin-4(3H)-one]
22 | < 10 µM | < 10 µM | O=C(c1ccc2[nH]cnc2c1)N1CCC(c2nc3c(oc4ccc(Br)cc43)c(=O)[nH]2)CC1 [Compound 208, 2-[1-(1H-benzimidazol-5-ylcarbonyl)piperidin-4-yl]-8-bromo[1]benzofuro[3,2-d]pyrimidin-4(3H)-one]
23 | < 10 µM | < 10 µM | COc1cc(C(=O)Nc2ccc(Cl)c(-c3nc4c(oc5ccc(Br)cc54)c(=O)[nH]3)c2)ccn1 [Compound 337, N-[3-(8-bromo-4-oxo-3,4-dihydro[1]benzofuro[3,2-d]pyrimidin-2-yl)-4-chlorophenyl]-2-(methyloxy)pyridine-4-carboxamide]
24 | < 10 µM | < 10 µM | NCc1cc(Cl)c(-c2nc3c(oc4ccc(Br)cc43)c(=O)[nH]2)cc1F [Compound 211, 2-[4-(aminomethyl)-2-chloro-5-fluorophenyl]-8-bromo[1]benzofuro[3,2-d]pyrimidin-4(3H)-one]
25 | < 10 µM | < 10 µM | O=c1[nH]c(NC2CCNCC2)nc2c1oc1ccc(Br)cc12 [Compound 213, 8-bromo-2-(piperidin-4-ylamino)[1]benzofuro[3,2-d]pyrimidin-4(3H)-one]
26 | < 10 µM | < 10 µM | O=c1[nH]c(-c2c(Cl)cccc2Cl)nc2c1oc1ccc(Br)cc12 [Compound 36, 8-Bromo-2-(2,6-dichlorophenyl)[1]benzofuro[3,2-d]pyrimidin-4(3H)-one]
27 | < 10 µM | < 10 µM | Cc1ccc2oc3c(=O)[nH]c(CN4CC[C@H](O)C4)nc3c2c1[N+](=O)O [Compound 424, hydroxy(2-{[(3S)-3-hydroxypyrrolidin-1-yl]methyl}-8-methyl-4-oxo-3,4-dihydro[1]benzofuro[3,2-d]pyrimidin-9-yl)oxoammonium]
28 | < 10 µM | < 10 µM | O=C(C1CCN(Cc2nc3c(oc4ccc(Br)cc43)c(=O)[nH]2)C1)N1CCC(O)CC1 (stereo not drawn) [Compound 272, 8-bromo-2-({3-[(4-hydroxypiperidin-1-yl)carbonyl]pyrrolidin-1-yl}methyl)[1]benzofuro[3,2-d]pyrimidin-4(3H)-one]
29 | < 10 µM | < 10 µM | CSc1ccccc1-c1nc2c(oc3ccc(Br)cc32)c(=O)[nH]1 [Compound 88, 8-bromo-2-[2-(methylthio)phenyl][1]benzofuro[3,2-d]pyrimidin-4(3H)-one]
30 | < 10 µM | < 10 µM | O=c1[nH]c(CN2CCC(Cc3ccccc3)CC2)nc2c1oc1ccc(Br)cc12 [Compound 253, 8-bromo-2-{[4-(phenylmethyl)piperidin-1-yl]methyl}[1]benzofuro[3,2-d]pyrimidin-4(3H)-one]
31 | < 10 µM | < 10 µM | O=C1CC(c2nc3c(oc4ccc(Br)cc43)c(=O)[nH]2)CN1C1CCNCC1 (stereo not drawn) [Compound 304, 8-Bromo-2-(5-oxo-1-piperidin-4-ylpyrrolidin-3-yl)[1]benzofuro[3,2-d]pyrimidin-4(3H)-one]
32 | < 10 µM | < 10 µM | O=c1[nH]c(CN2CC[C@H](O)C2)nc2c1oc1ccc(C#CCO)cc12 [Compound 454, 8-(3-hydroxyprop-1-yn-1-yl)-2-{[(3S)-3-hydroxypyrrolidin-1-yl]methyl}[1]benzofuro[3,2-d]pyrimidin-4(3H)-one]
33 | < 10 µM | < 10 µM | O=C(NCc1ccccc1Cl)C1(O)CCN(Cc2nc3c(oc4ccc(Br)cc43)c(=O)[nH]2)C1 (stereo not drawn) [Compound 411, ′1-[(8-bromo-4-oxo-3,4-dihydro[1]benzofuro[3,2-d]pyrimidin-2-yl)methyl]-N-[(2-chlorophenyl)methyl]-3-hydroxypyrrolidine-3-carboxamide]
